# Experimental data as given in the Kinase Knowledgebase extract (Sharma et al. 2016).
# Target: MAPK14 (human) (UniProt Q16539)
# Assay: Apoptotic Activity (Eosinophils)
# Details: concentration not given here
# Chain of MAPK14 (human) (Q16539 whole entry, looked up): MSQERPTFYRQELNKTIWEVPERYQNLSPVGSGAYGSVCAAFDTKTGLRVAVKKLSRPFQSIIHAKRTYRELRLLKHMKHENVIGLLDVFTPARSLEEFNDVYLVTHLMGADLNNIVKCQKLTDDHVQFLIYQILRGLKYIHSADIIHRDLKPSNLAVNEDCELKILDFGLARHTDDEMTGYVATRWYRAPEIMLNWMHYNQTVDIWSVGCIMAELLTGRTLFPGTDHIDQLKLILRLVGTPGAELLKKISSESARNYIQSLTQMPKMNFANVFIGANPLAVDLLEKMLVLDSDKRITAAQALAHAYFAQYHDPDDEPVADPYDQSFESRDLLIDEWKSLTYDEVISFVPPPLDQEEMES
row,apoptosis,SMILES
1,28.9%,CS(=O)(=O)Nc1cc2c(cc1-c1ccc(F)c(S)c1F)C(=O)CC2
2,32.5%,CC(C(=O)O)c1ccc(-c2ccccc2)c(F)c1 (stereo not drawn)
3,27.7%,COc1ccc2c(c1)c(CC(=O)O)c(C)n2C(=O)c1ccc(Cl)cc1
